How the values were obtained:
[1] = tested on: MX-1 or MAXF401 human breast cancer xenografts; conditions: 6 weeks, CDS (days on/off) 14/7, 5/2, 2/5, 7/7, 4 dose levels plus control; Yanagisawa, Proc. AACR 2004; cited from earlier work
[2] = tested on: MX-1 or MAXF401 human breast cancer xenografts; experiment: Tumor volume growth in mice bearing human breast cancer xenografts; drug effect DE(t) and time point of maximum impact (TPMI) from Gompertzian/polynomial fits; format: in vivo; conditions: for maximum drug effect, DE(TPMI): dimensionless; for elapsed time to zero crossing of derivative DE'(t) (TPMI) / elapsed time after start of treatment to relative maximum in DE(t) (TPMI): pooled data, 14 days on/7 off; for elapsed time after start of treatment to relative maximum in DE(t) (TPMI): first cycle
Source text: The untreated series of measurements reveal the progression of the disease without treatment, and therefore it is not obtained from a patient to be treated using the method. Typically the untreated series of measurements describes the progression of the disease in one or more historical cases, or test subjects, or both. For example, the untreated series of measurements describes the progression of tumor volume with time in breast cancer victims who are not treated for some number of weeks. In the illustrated embodiment, described further in later sections, the untreated series of measurements describe tumor volume in mice bearing MX-1 or MAXF401 human breast cancer xenografts approximately every two days for about seven weeks (50 days). FIG. 2A is a graph 210 that illustrates, as solid-filled circles 216, pooled measurements of tumor volume growth for untreated breast cancer in xenograft models (MX-1). Untreated tumor growth is sometimes called “naïve growth.” The horizontal axis 212 indicates the passage of time in days since an initial time. The vertical axis 214 indicates the tumor volume in cubic millimeters (mm^3). The solid trace 218 represents a model fit to the data as described in more detail below.
In the illustrated embodiment, described further in later sections, two treated series of measurements describe tumor volume in mice bearing MX-1 or MAXF401 human breast cancer xenografts approximately every two days for about seven weeks (50 days) during treatment. The treatment involves administering the drug XELODA according to the standard protocol: a 14-day duration of administering the drug at a particular dose, followed by a 7 day hiatus in administering the drug. One treatment uses a lower dose of 1.5 millimoles (mmol) per kilogram (kg) of victim weight per day (mmol/kg/day). A second treatment uses a higher dose of 2.25 mmol/kg/day. Each of the two treated series describes the progression of tumor volume with time in the treated victim of the disease, and includes an initial measurement of tumor volume at or near when the treatment was started, for example just before the first injection of the drug. The initial measurement is used in a later step to relate a treated series to the untreated series, which typically occur in different subjects.
In step 130, a temporal series of effectiveness values is determined. Any method may be used to determine an effectiveness value. In the illustrated embodiment, each effectiveness value indicates the ratio between the rate of change of the physical property for the treated disease and the rate of change for the untreated disease at a corresponding time. For purposes of illustration, it is assumed that the temporal progression of the physical property for the untreated disease is represented by the function Pu(t) and that its rate of change is given by its first time derivative Pu′(t). Similarly, it is assumed that the temporal progression of the physical property for the treated disease is represented by the function Pt(t) and that its rate of change is given by its first time derivative Pt′(t). It is further assumed that the temporal progression of the ratio is represented by the function R(t) and is given by Equation 1 R(t)=Pt′(t)/Pu′(t) (1). In other embodiments, a different definition of ratio is used. For example, in some embodiments the ratio given by the reciprocal of R(t) is used. In the illustrated embodiments, R is the ratio of two physical properties with the same units and is therefore dimensionless.
An effectiveness parameter is often defined that indicates the ratio R(t) but offers a more useful description of the effect of a treatment than the ratio itself. […]

SMILES: CCCCCOC(=O)Nc1nc(=O)n([C@@H]2O[C@H](C)[C@@H](O)[C@H]2O)cc1F [capecitabine]
- effectiveness of CDS regimens [1]: all were effective at an appropriate dose
- maximum drug effect, DE(TPMI) ([2]; 7-day duration/7-day hiatus, high dose 2.5 mmol/kg/day): about 0.8
- maximal DE, 7 on/7 off CDS compared with 14 on/7 off CDS ([2]; follow-up experiment, higher daily dose with 7 on/7 off): increased maximal DE
- elapsed time to zero crossing of derivative DE'(t) (TPMI) ([2]; higher dose 2.25 mmol/kg/day): 8.3 days
- elapsed time after start of treatment to relative maximum in DE(t) (TPMI) ([2]; higher dose 2.25 mmol/kg/day): 8 days
- elapsed time to zero crossing of derivative DE'(t) (TPMI) ([2]; lower dose 1.5 mmol/kg/day): 10.1 days
- elapsed time after start of treatment to relative maximum in DE(t) (TPMI) ([2]; lower dose 1.5 mmol/kg/day): 10 days
- time point of maximum impact (TPMI), averaged, days into therapy ([2]; pooled mice, dose levels analyzed (1.5 and 2.25 mmol/kg/day), 14/7 CDS): 8.3 to 10.1 days
- maximum drug effect, DE(TPMI) ([2]; standard protocol, 14-day duration/7-day hiatus): about 0.65
